Results taken from US5153194A, “Thienocycloheptapyridazine compounds and their pharmaceutical use” (Yoshitomi Pharmaceutical Industries, Ltd., priority 1988, dated 1992).

What was measured:
ddY mice = experiment: Acute toxicity; format: in vivo, mouse (male ddY); settings: 5 days
Description: Five male ddY mice were used per group.

[1] = biological target: benzodiazepine (BZP) receptors; experiment: Displacement ability for benzodiazepine (displacement of tritiated diazepam); format: binding, rat (male Wistar; settings: displacement of tritiated diazepam (2 nM), rat cerebral cortex synaptosomes, 0° C., 20 minutes, pH 7.4; read-out: Affinity to BZP Receptors, Ki
Experimental: The experiment for specific affinity to benzodiazepine receptors was carried out in accordance with the method described in Life Science, vol. 20, 2101 (1977).
The crude cynaptosome fraction was isolated from the cerebral cortex of male Wistar rats aged 9-10 weeks, and was suspended in 50 mM Tris-hydrochloric acid buffer solution (pH 7.4) containing 120 mM sodium chloride and 5 mM potassium chloride. These suspensions were used for the experiment.
The test compounds in several different concentrations and tritiated diazepam (in final concentration of 2 nM) were added to the synaptosome suspensions, and the mixtures were incubated at 0° C. for 20 minutes. These suspensions were filtered with Whatman GF/B glassfiber filters. After the filters were washed with the above-mentioned buffer solution, the radioactivity left on the filters was measured with the use of a liquid scintillation counter.
Specific binding was determined by subtracting binding in the presence of 10^-6 M unlabelled diazepam from total binding.
According to the foregoing experimental method, the binding force to benzodiazepine receptors of the compound of the present invention is evaluated from its displacement ability for tritiated diazepam at its binding site, which is represented by Ki value (nM).

[2] = system: amnesia-induced mice (electroconvulsive shock); experiment: Action on experimental amnesia (ECS-induced amnesia, step-through passive avoidance); format: in vivo, mouse (male ddY); settings: 2.5 mg/kg (i.p.) or more, 30 minutes before acquisition trial; retention test 24 hours after
Experimental: Twenty male ddY mice were used per group to investigate the action of the test compounds on learning and memory ability of amnesia-induced mice by observing a step-through passive avoidance reflex. Amnesia-induced animals were prepared by applying electroconvulsive shock (ECS) soon after the acquisition trial and the retention test was carried out 24 hours after the acquisition trial. Test compounds were administered intraperitoneally (i.p.) 30 minutes before the acquisition trial.

[3] = system: tonic convulsion induced by (+) bicuculline; experiment: Anti-bicuculline action (bicuculline-induced tonic convulsion); format: in vivo, mouse (male ddY); settings: Mus musculus; oral, 1 hour before (+) bicuculline 0.6 mg/kg i.v.; tonic convulsion within 5 minutes
Experimental: The anti-bicuculline action test was carried out in accordance with the method described in Life Science, vol. 21, 1779 (1977).
Male ddY mice weighing 20-28 g, 7-14 animals per group, were used. One hour after the oral administration of the test compounds, (+) bicuculline was intravenously administered at the dosage of 0.6 mg/kg, and 50% effective concentration (ED50) was estimated by examining whether tonic convulsion within 5 minutes was caused or not.

SMILES	survival, acute toxicity, intraperitoneal (ddY mice; 300 mg/kg i.p., five mice)	survival, acute toxicity, oral (ddY mice; 1000 mg/kg oral)	Ki [1] [nM]	latency time in the trial of the retention test [2]	ED50 [3] [mg/kg]
COc1ccc(N2N=C3c4cc(C)sc4CCCC3CC2=O)cc1 (stereo not shown) [Example 4, 2-(4-methoxyphenyl)-9-methyl-2,4,4a,5,6,7-hexahydro-3H-thieno[2',3':6,7]cyclohepta[1,2-c]pyridazin-3-one]	all mice survived for 5 days	survived for 5 days	1.1	significantly prolonged the latency time	
Cc1cc2c(s1)CCCc1cc(=O)n(-c3ccc(Cl)cc3)nc1-2 [Example 5, 2-(4-chlorophenyl)-2,5,6,7-tetrahydro-9-methyl-3H-thieno[2',3':6,7]cyclohepta[1,2-c]pyridazin-3-one]					9.8
Cc1cc2c(s1)CCCC1CC(=O)N(c3ccc(Cl)cc3)N=C21 (stereo not shown) [Example 1, 2-(4-chlorophenyl)-9-methyl-2,4,4a,5,6,7-hexahydro-3H-thieno[2',3':6,7]cyclohepta[1,2-c]pyridazin-3-one]			4.8		8.1
